“And” between values parts separate entries of the source, which are not always exact repeats. Identical values can stand only once.
Conditions: 283.15 K, Liquid, Vibrating tube method

CCCCCC(=O)OCC(COC(=O)CCCCC)(COC(=O)CCCCC)COC(=O)CCCCC [pentaerythritol tetrahexanoate]
Conditions	mass density
9284.9 kPa	1009.6 kg/m3
9306.2 kPa	1009.5 kg/m3
9324.2 kPa	1009.5 kg/m3
9341.7 kPa	1009.5 kg/m3
9359.5 kPa	1009.5 kg/m3
9380.7 kPa	1009.4 kg/m3
9398.1 kPa	1009.6 kg/m3
9416 kPa	1009.6 kg/m3
9436.7 kPa	1009.6 kg/m3
9454.6 kPa	1009.6 kg/m3
9473 kPa	1009.6 kg/m3
9490.6 kPa	1009.6 kg/m3
9508.2 kPa	1009.7 kg/m3
9529 kPa	1009.7 kg/m3
9546.3 kPa	1009.7 kg/m3
9563.7 kPa	1009.7 kg/m3
9585 kPa	1009.7 kg/m3
9602.4 kPa	1009.6 kg/m3
9623.6 kPa	1009.7 kg/m3
9642.2 kPa	1009.7 kg/m3
9660.2 kPa	1009.7 kg/m3
9681 kPa	1009.8 kg/m3
9690.2 kPa	1009.7 kg/m3
9690.5 kPa	1009.7 kg/m3
9691 kPa	1009.8 kg/m3
9691.2 kPa	1009.9 kg/m3
9691.4 kPa	1009.8 kg/m3
9691.5 kPa	1009.7 kg/m3
9691.6 kPa	1009.8 kg/m3
9691.9 kPa	1009.7 kg/m3
9692 kPa	1009.8 kg/m3
9692.1 kPa	1009.6 kg/m3
9692.4 kPa	1009.7 kg/m3
9692.6 kPa	1009.8 kg/m3
9692.8 kPa	1009.7 kg/m3
9693.3 kPa	1009.8 kg/m3
9693.4 kPa	1009.8 kg/m3
9693.8 kPa	1009.8 kg/m3
9693.9 kPa	1009.8 kg/m3
9694.3 kPa	1009.8 kg/m3
9694.5 kPa	1009.8 kg/m3
9695 kPa	1009.8 kg/m3
9695.1 kPa	1009.9 kg/m3
9695.3 kPa	1009.9 kg/m3
9695.7 kPa	1009.7 kg/m3 and 1009.8 kg/m3
9695.8 kPa	1009.9 kg/m3
9696.2 kPa	1009.8 kg/m3
9696.4 kPa	1009.8 kg/m3
9696.5 kPa	1009.8 kg/m3
9696.7 kPa	1009.8 kg/m3
9696.9 kPa	1009.8 kg/m3
9697.2 kPa	1009.8 kg/m3
9697.6 kPa	1009.8 kg/m3
9698.1 kPa	1009.5 kg/m3 and 1009.8 kg/m3
9698.2 kPa	1009.8 kg/m3
9698.3 kPa	1009.9 kg/m3
9698.9 kPa	1009.7 kg/m3
9699 kPa	1009.7 kg/m3
9699.1 kPa	1009.7 kg/m3
9699.3 kPa	1009.7 kg/m3
9699.6 kPa	1009.7 kg/m3
9699.8 kPa	1009.7 kg/m3 and 1009.9 kg/m3
9700 kPa	1009.8 kg/m3 and 1009.6 kg/m3
9700.1 kPa	1009.8 kg/m3 and 1009.7 kg/m3
9700.3 kPa	1009.7 kg/m3 and 1009.8 kg/m3
9700.7 kPa	1009.7 kg/m3
9700.8 kPa	1009.7 kg/m3
9701 kPa	1009.7 kg/m3
9701.5 kPa	1009.8 kg/m3 and 1009.7 kg/m3
9701.7 kPa	1009.8 kg/m3
9754.8 kPa	1009.8 kg/m3
9769.2 kPa	1009.7 kg/m3
9783.6 kPa	1009.8 kg/m3
9797.3 kPa	1009.7 kg/m3
9814.5 kPa	1009.7 kg/m3
9828.7 kPa	1009.8 kg/m3
9845.7 kPa	1009.7 kg/m3
9859.7 kPa	1009.8 kg/m3
9874.3 kPa	1009.8 kg/m3
9888.8 kPa	1009.8 kg/m3
9905.8 kPa	1009.8 kg/m3
9919.9 kPa	1009.9 kg/m3
9934.6 kPa	1009.9 kg/m3
9951.8 kPa	1009.9 kg/m3
9966.6 kPa	1009.9 kg/m3
9984 kPa	1009.8 kg/m3
9998.7 kPa	1009.8 kg/m3
10013 kPa	1009.9 kg/m3
10027 kPa	1010 kg/m3
10045 kPa	1009.8 kg/m3
10060 kPa	1009.9 kg/m3
10074 kPa	1009.9 kg/m3
10091 kPa	1010 kg/m3
10106 kPa	1010 kg/m3
10120 kPa	1009.9 kg/m3
10135 kPa	1009.9 kg/m3
10152 kPa	1010 kg/m3
10166 kPa	1010 kg/m3
10181 kPa	1010 kg/m3
10195 kPa	1010 kg/m3
10212 kPa	1010.1 kg/m3
10226 kPa	1010.1 kg/m3
10244 kPa	1010 kg/m3
10258 kPa	1010 kg/m3
10273 kPa	1010 kg/m3
10288 kPa	1009.9 kg/m3
10305 kPa	1010.1 kg/m3
10320 kPa	1010 kg/m3
10334 kPa	1010.1 kg/m3
10352 kPa	1010.1 kg/m3
10367 kPa	1010.2 kg/m3
10382 kPa	1010.1 kg/m3
10400 kPa	1010.1 kg/m3
10415 kPa	1010.2 kg/m3
10430 kPa	1010.1 kg/m3
10445 kPa	1010.1 kg/m3
10463 kPa	1010.2 kg/m3
10478 kPa	1010.2 kg/m3
10496 kPa	1010.1 kg/m3
10511 kPa	1010.2 kg/m3
10526 kPa	1010.1 kg/m3
10541 kPa	1010.3 kg/m3
10559 kPa	1010.2 kg/m3
10575 kPa	1010.3 kg/m3
10590 kPa	1010.2 kg/m3
10608 kPa	1010.2 kg/m3
10622 kPa	1010.3 kg/m3
10638 kPa	1010.2 kg/m3
10656 kPa	1010.3 kg/m3
10671 kPa	1010.4 kg/m3
10686 kPa	1010.3 kg/m3
10704 kPa	1010.4 kg/m3
10719 kPa	1010.2 kg/m3
10733 kPa	1010.3 kg/m3
10749 kPa	1010.2 kg/m3
10766 kPa	1010.3 kg/m3
10780 kPa	1010.3 kg/m3
10798 kPa	1010.3 kg/m3
10812 kPa	1010.4 kg/m3
10826 kPa	1010.4 kg/m3
10840 kPa	1010.4 kg/m3
10858 kPa	1010.4 kg/m3
10872 kPa	1010.3 kg/m3
10887 kPa	1010.4 kg/m3
10904 kPa	1010.4 kg/m3

From the NIST ThermoML archive (doi:10.1021/je060271a)
